Literature values in patent US8293900B2, “Acylated spiropiperidine derivatives as melanocortin-4 receptor modulators” (Merck Sharp & Dohme Corp, priority 2005, dated 2012).

Key:
[1] = oral route
[2] = injected intramuscularly or subcutaneously, males with psychogenic erectile dysfunction

Ac-Nle-c[Asp-His-DPhe-Arg-Trp-Lys]-NH2 [MT-II]
absorption into the systemic circulation [1]: not absorbed into the systemic circulation | response rate [2]: 75%
